{"source": "patent US20060211725A1", "about": "“Use” (Astellas Pharma Inc., priority 2002, published 2006)", "type_in_all_cases": "in vivo, rat", "key": {"[1]": {"tested_on": "F344 kidney allograft in LEW recipient rats", "experiment": "Kidney allograft survival, combination with tacrolimus (Example 2)", "settings": "Tacrolimus 1 mg/kg PO, 0-90 day, alone", "experimental": "The rats and kidney transplantation methods described in Example 1 were used. The compound (I) at dose of 3 mg/kg and tacrolimus at dose of 1 mg/kg, were administered orally to recipient rats daily for 90 days after transplantation. The isograft, untreated allograft, and allograft treated with tacrolimus 1 mg/kg for 90 days alone served as control groups."}, "[2]": {"tested_on": "F344 kidney allograft in LEW recipient rats", "experiment": "Kidney allograft survival, treatment with brief tacrolimus (Example 4)", "settings": "Tacrolimus 1 mg/kg PO, 0-9 day, alone", "experimental": "(§1) The rats and kidney transplantation methods described in Example 1 were used. Tacrolimus at dose of 1 mg/kg from day 0 to day 9 after transplantation, and the compound (I) at doses of 10 mg/kg and 15 mg/kg from day 28 today 60 after transplantation were administered orally to recipient rats. In this study LEW recipients were briefly treated with oral tacrolimus at 1 mg/kg/day for 10 days after transplantation to avoid acute rejection and slow chronic rejection that gradually destroys the F344 kidney graft, resulting in functional and histological changes similar to the chronic rejection in human. The isograft, untreated allograft and allograft treated with tacrolimus 1 mg/kg for 10 days alone served as control groups. Blood and urine samples were collected once a week from recipients with kidney grafts described in Example 1 for measuring their plasma creatinine and proteinuria. Plasma creatinine was tested by Sigma Creatinine Kit and proteinuria by Bio-Rad Protein assay."}, "[3]": {"tested_on": "F344 kidney allograft in LEW recipient rats", "experiment": "Recipient kidney function, treatment with brief tacrolimus (Example 4)", "settings": "brief dose of tacrolimus 1 mg/kg day 0-9 alone; allograft control week 7", "experimental": "as §1"}}, "data": [{"molecule": "C=CC[C@@H]1/C=C(\\C)C[C@H](C)C[C@H](OC)[C@H]2O[C@@](O)(C(=O)C(=O)N3CCCC[C@H]3C(=O)O[C@H](/C(C)=C/[C@@H]3CC[C@@H](O)[C@H](OC)C3)[C@H](C)[C@@H](O)CC1=O)[C@H](C)C[C@@H]2OC", "note": "[Tacrolimus, tacrolimus]", "values": [{"measurement": "Survival day", "setting": "[1]; n=4", "result": ">90", "unit": "days"}, {"measurement": "Survival rate (90 days)", "setting": "[1]; untreated allograft 40%", "result": 100, "unit": "%"}, {"measurement": "Survival day", "setting": "[2]; n=5", "result": ">90", "unit": "days"}, {"measurement": "Survival rate", "setting": "[2]; untreated allograft 40%", "result": 100, "unit": "%"}, {"measurement": "week post transplantation after which plasma creatinine increased rapidly", "setting": "[3]", "result": 8, "unit": "week"}]}]}
